Type in all cases: biochemical
Holding throughout (settings): 3 μM; percent of control kinase activity

In assay [1] the target is Fes(h) (Homo sapiens, UniProt P07332). The experiment in a line: Fes(h) kinase assay. The procedure: (§1) Six compounds (presumptive single agents) were tested against a panel of 50 kinases. The results are presented in Table 2; numbers for each kinase indicate the percent of control kinase activity in the presence of a 3μM concentration of the indicated agent.
(§2) Agents that target two or more different kinases are useful in the methods of the invention as described elsewhere herein. Such compounds may be identified, and their effect on certain kinases may be identified, using the assays briefly described below in Examples 4-83. Each of these assays was carried out as described in Davies et al., Biochem. J., 351:95-105 (2000). All assays were carried out at 10 μM ATP unless otherwise noted.
(§3) In a final reaction volume of 25 μl, Fes(h) (5-10 mU) is incubated with 8 mM MOPS pH 7.0, 0.2 mM EDTA, 0.1 mg/ml poly(Glu, Tyr) 4:1, 10 mM MgAcetate and [γ-^33P-ATP] (specific activity approx. 500 cpm/pmol, concentration as required). The reaction is initiated by the addition of Mg^2+ [γ-^33P-ATP]. After incubation for 40 minutes at room temperature, the reaction is stopped by the addition of 5 μl of a 3% phosphoric acid solution. 10 μl of the reaction is then spotted onto a Filtermat A and washed three times for 5 minutes in 75 mM phosphoric acid and once in methanol prior to drying and scintillation counting.

Assay [2] addresses CDK5/p35(h) (Homo sapiens, UniProt Q00535). The experiment in a line: CDK5/p35(h) kinase assay. How it is done:
as §1, §2
as §3, with “CDK5/p35 (h)” for “Fes(h)”, “histone H1,” for “poly(Glu, Tyr) 4:1,”, “P30 filtermat” for “Filtermat A”

Assay [3] concerns the target CaMKIV(h) (Homo sapiens, UniProt Q16566). The experiment in a line: CaMKIV(h) kinase assay. How it is done: as §1, §2
as §3, with “CaMKIV (h)” for “Fes(h)”, “40” for “8”, “Hepes” for “MOPS”, “7.4, 5” for “7.0, 0.2”, “CaCl2, 30 μg/ml calmodulin, 30 μM […] (SEQ ID NO:11),” for “EDTA, 0.1 mg/ml poly(Glu, Tyr) 4:1,”, “P30 filtermat” for “Filtermat A”

In assay [4] the target is IGF-1R(h) (Homo sapiens, UniProt P08069). Nature of the assay: IGF-1R(h) kinase assay. The procedure: as §1, §2
(§4) In a final reaction volume of 25 μl, IGF-IR (h) (5-10 mU) is incubated with 50 mM Tris pH 7.5, 0.1 mM EGTA, 0.1 mM NaVanadate, 0.1% β-mercaptoethanol, 250 μM […] (SEQ ID NO:16), 10 mM MnCl2, 10 mM MgAcetate and [γ-^33P-ATP] (specific activity approx. 500 cpm/pmol, concentration as required). The reaction is initiated by the addition of Mg^2+ [γ-^33P-ATP]. After incubation for 40 minutes at room temperature, the reaction is stopped by the addition of 5 μl of a 3% phosphoric acid solution. 10 μl of the reaction is then spotted onto a P30 filtermat and washed three times for 5 minutes in 75 mM phosphoric acid and once in methanol prior to drying and scintillation counting.

The target of assay [5] is FGFR3(h) (Homo sapiens, UniProt P22607). Nature of the assay: FGFR3(h) kinase assay. How it is done: as §1, §2
In a final reaction volume of 25 μl, FGFR3 (h) (5-10 mU) is incubated with 50 mM Tris pH 7.5, 0.1 mM EGTA, 0.1 mM NaVanadate, 0.1% β-mercaptoethanol, 0.1 mg/ml poly(Glu, Tyr) 4:1, 10 mM MnCl2, 10 mM MgAcetate and [γ-^33P-ATP] (specific activity approx. 500 cpm/pmol, concentration as required). The reaction is initiated by the addition of Mg^2+ [γ-^33P-ATP]. After incubation for 40 minutes at room temperature, the reaction is stopped by the addition of 5 μl of a 3% phosphoric acid solution. 10 μl of the reaction is then spotted onto a Filtermat A and washed three times for 5 minutes in 75 mM phosphoric acid and once in methanol prior to drying and scintillation counting.

Assay [6] has as its target Rsk2(h) (Homo sapiens, UniProt P51812). The experiment in a line: Rsk2(h) kinase assay. How it is done:
as §1, §2
as §3, with “Rsk2(h)” for “Fes(h)”, “30 μM […] (SEQ ID NO:11),” for “0.1 mg/ml poly(Glu, Tyr) 4:1,”, “P30 filtermat” for “Filtermat A”

In assay [7] the target is Fyn(h) (Homo sapiens, UniProt P06241). Nature of the assay: Fyn(h) kinase assay. The procedure: as §1, §2
as §4, with “Fyn” for “IGF-IR”, “NaVanadate,” for “NaVanadate, 0.1% β-mercaptoethanol,”, “(Cdc2 peptide; SEQ” for “(SEQ”, “NO:7),” for “NO:16), 10 mM MnCl2,”

Molecules are shown by their SMILES.

Chain of Fyn(h) (P06241 whole entry): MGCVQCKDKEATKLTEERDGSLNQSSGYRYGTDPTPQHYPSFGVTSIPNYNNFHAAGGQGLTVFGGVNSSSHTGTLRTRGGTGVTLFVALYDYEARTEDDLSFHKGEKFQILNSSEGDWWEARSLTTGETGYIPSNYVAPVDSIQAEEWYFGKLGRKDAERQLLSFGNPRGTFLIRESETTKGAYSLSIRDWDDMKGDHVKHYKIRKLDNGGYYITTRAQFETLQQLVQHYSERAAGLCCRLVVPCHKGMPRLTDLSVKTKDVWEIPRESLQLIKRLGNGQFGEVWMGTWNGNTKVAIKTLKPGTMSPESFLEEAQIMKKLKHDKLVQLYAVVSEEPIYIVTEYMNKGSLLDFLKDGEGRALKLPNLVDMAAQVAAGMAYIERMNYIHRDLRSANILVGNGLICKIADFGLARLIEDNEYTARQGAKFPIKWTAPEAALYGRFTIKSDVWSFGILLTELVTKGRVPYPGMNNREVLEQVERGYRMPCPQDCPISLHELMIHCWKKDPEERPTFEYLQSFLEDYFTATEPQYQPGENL
Chain of FGFR3(h) (P22607 23-806): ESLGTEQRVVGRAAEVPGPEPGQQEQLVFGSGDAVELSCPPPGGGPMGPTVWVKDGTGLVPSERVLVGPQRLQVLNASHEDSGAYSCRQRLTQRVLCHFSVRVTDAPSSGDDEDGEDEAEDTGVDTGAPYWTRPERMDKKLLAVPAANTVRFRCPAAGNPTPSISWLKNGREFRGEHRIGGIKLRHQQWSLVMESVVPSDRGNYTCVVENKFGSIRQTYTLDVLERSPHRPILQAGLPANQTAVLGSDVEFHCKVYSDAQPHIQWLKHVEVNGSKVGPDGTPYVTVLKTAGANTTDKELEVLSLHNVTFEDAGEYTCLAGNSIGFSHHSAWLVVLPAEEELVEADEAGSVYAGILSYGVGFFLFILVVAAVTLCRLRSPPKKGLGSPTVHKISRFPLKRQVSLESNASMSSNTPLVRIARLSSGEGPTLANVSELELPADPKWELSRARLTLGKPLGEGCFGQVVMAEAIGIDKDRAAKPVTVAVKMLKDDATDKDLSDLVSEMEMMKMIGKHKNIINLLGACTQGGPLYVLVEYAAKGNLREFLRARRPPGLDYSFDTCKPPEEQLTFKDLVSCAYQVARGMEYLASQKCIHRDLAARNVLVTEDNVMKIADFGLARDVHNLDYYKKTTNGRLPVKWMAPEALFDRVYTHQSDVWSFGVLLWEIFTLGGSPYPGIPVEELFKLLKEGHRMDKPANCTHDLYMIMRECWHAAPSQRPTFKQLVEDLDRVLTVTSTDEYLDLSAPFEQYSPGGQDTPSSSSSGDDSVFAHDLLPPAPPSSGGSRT
Chain of IGF-1R(h) (P08069 31-1367): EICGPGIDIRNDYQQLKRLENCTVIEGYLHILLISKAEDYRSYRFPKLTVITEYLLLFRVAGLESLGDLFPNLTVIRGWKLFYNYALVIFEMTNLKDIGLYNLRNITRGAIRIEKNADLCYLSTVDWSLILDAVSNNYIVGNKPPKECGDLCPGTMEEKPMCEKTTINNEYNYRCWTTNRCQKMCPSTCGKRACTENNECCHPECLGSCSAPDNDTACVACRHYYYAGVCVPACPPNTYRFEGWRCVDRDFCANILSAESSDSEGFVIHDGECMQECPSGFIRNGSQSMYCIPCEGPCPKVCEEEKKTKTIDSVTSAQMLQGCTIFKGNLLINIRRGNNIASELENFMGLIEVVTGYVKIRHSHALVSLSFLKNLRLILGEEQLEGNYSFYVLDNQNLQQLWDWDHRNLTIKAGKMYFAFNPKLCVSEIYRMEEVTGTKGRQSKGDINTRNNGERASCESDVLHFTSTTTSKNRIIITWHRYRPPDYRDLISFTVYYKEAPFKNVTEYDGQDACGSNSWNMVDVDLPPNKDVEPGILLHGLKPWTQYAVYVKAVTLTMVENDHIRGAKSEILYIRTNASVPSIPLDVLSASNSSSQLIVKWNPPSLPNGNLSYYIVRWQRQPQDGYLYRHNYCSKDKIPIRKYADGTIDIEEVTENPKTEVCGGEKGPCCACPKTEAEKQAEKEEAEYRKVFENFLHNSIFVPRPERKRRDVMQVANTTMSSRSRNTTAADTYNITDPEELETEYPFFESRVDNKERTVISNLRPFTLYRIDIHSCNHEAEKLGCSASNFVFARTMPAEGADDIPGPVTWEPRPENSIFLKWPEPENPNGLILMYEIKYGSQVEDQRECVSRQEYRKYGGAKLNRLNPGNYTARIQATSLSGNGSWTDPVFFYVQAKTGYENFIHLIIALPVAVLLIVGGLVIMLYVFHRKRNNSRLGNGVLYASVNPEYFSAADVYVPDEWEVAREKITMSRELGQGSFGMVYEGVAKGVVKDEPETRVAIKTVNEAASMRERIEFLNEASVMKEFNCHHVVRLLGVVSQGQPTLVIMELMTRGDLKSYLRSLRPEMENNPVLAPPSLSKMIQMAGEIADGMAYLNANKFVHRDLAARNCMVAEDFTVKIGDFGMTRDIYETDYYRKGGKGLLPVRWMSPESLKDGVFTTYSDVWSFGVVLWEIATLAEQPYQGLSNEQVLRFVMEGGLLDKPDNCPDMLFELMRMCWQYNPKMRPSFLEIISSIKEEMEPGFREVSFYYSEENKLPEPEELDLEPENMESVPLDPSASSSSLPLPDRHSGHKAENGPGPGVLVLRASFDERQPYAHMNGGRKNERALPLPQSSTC
Chain of CDK5/p35(h) (Q00535 whole entry): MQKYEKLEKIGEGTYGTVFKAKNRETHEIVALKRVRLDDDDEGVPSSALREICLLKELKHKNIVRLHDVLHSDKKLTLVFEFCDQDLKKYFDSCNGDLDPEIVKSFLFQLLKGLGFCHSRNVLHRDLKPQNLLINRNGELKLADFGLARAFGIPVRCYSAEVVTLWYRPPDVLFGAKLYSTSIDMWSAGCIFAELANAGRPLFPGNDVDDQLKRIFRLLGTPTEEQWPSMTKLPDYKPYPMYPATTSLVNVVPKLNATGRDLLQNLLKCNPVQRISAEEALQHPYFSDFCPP
Chain of CDK5/p35(h) (Q15078 whole entry partner): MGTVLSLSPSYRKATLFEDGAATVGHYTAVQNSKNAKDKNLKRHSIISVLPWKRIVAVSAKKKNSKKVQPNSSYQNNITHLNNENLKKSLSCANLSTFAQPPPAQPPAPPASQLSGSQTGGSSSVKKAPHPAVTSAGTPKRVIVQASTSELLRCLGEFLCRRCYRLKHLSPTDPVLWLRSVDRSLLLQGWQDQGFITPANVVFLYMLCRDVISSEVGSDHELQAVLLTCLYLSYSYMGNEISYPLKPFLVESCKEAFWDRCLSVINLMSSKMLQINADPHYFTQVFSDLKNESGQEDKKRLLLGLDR
Chain of Fes(h) (P07332 whole entry): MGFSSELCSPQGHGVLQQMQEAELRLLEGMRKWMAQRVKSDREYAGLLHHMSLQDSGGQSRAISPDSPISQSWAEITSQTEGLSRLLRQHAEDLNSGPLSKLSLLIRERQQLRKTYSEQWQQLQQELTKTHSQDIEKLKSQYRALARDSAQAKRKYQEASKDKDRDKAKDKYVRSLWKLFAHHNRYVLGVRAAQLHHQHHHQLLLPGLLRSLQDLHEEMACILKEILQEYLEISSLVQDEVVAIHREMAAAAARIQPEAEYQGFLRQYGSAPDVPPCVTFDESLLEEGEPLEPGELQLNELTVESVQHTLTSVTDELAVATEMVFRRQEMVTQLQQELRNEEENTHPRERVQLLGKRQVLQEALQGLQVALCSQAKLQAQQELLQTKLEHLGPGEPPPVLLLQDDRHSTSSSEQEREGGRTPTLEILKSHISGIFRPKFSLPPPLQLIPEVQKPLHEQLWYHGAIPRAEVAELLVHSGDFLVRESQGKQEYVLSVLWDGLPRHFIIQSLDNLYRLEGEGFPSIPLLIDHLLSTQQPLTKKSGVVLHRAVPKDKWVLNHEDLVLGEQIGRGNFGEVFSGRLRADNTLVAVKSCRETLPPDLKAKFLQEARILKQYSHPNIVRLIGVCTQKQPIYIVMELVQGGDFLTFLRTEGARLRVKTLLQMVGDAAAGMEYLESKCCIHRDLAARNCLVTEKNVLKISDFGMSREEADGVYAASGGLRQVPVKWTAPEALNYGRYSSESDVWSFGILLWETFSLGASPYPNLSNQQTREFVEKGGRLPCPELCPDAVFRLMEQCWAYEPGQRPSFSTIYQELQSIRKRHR
Chain of Rsk2(h) (P51812 whole entry): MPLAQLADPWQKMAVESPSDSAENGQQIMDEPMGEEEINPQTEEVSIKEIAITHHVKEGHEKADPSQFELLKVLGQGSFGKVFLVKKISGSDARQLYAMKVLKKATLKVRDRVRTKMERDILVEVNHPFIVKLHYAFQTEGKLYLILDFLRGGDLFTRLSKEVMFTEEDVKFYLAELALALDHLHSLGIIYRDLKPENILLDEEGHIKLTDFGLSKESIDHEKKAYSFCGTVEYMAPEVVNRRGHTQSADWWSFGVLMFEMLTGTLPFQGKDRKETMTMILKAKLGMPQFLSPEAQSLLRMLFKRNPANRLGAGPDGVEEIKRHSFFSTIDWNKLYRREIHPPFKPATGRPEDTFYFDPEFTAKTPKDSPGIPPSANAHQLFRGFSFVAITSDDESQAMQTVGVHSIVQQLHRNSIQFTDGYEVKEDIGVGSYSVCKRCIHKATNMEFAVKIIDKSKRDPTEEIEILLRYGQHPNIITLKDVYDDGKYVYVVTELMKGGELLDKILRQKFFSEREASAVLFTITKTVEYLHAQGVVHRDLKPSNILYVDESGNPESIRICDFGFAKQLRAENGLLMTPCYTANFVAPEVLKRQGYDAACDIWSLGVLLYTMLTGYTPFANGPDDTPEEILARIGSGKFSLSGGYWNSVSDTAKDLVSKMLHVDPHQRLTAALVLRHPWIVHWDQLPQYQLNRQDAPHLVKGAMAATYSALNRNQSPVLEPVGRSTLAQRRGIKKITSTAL

For `CC(C)Cc1nc(-c2ccc3[nH]nc(-c4ccc5cc(OCCN6CCCC6)ccc5c4)c3c2)n[nH]1` [CC002, 5-(5-Isobutyl-1H-[1,2,4]Triazol-3-yl)-3-[6-(2-Pyrrolidin-1-yl-Ethoxy)-Naphthalen-2-yl]-1H-Indazole], the “Inhibitory activity (% of control), Fes(h)” value in assay [1] was 10 % of control. For the same molecule, the “Inhibitory activity (% of control), CDK5/p35(h)” value in assay [2] is 16 % of control. Further, the “Inhibitory activity (% of control), CaMKIV(h)” value in assay [3] is 60 % of control. For the same molecule, in assay [4], the “Inhibitory activity (% of control), IGF-1R(h)” value is listed as 55 % of control. Moreover, the “Inhibitory activity (% of control), FGFR3(h)” value in assay [5] is given as 5 % of control. Also, the “Inhibitory activity (% of control), Rsk2(h)” value in assay [6] is given as 5 % of control. Besides, the “Inhibitory activity (% of control), Fyn(h)” value in assay [7] is on record as 4 % of control.
Take `CCN1CCC[C@H]1COc1ccc2cc(-c3n[nH]c4ccc(-c5nc(CC(C)(C)C)n[nH]5)cc34)ccc2c1` [CC005, 2-[((2s)-1-ethylpyrrolidin-2-yl)methoxy]-6-{5-[3-(2,2-Dimethylpropyl)(1H-1,2,4,-triazol-5-yl)](1H-indazol-3-yl)}naphthalene]: the “Inhibitory activity (% of control), Fes(h)” value in assay [1] was 8 % of control. Also, the “Inhibitory activity (% of control), CDK5/p35(h)” value in assay [2] is reported as 8 % of control. Further, in assay [3], the “Inhibitory activity (% of control), CaMKIV(h)” value is listed as 22 % of control. For the same molecule, the “Inhibitory activity (% of control), IGF-1R(h)” value in assay [4] was 58 % of control. Also, in assay [5], the “Inhibitory activity (% of control), FGFR3(h)” value is recorded as 5 % of control. The “Inhibitory activity (% of control), Rsk2(h)” value in assay [6] is 3 % of control. For the same molecule, the “Inhibitory activity (% of control), Fyn(h)” value in assay [7] is reported as 4 % of control.
On to `Fc1ccc(-c2n[nH]c3ccc(-c4n[nH]c(C5CCCC5)n4)cc23)cc1` [CC006, 5-(5-Cyclopentyl-1H-[1,2,4]triazol-3-yl)-3-(4-fluoro-phenyl)-1H-indazole, reference compound], for which the “Inhibitory activity (% of control), Fes(h)” value in assay [1] was 70 % of control. Also, in assay [2], the “Inhibitory activity (% of control), CDK5/p35(h)” value is 12 % of control. Also, the “Inhibitory activity (% of control), CaMKIV(h)” value in assay [3] is recorded as 95 % of control. In addition, the “Inhibitory activity (% of control), IGF-1R(h)” value in assay [4] is listed as 65 % of control. In assay [5], the “Inhibitory activity (% of control), FGFR3(h)” value is 33 % of control. For the same molecule, the “Inhibitory activity (% of control), Rsk2(h)” value in assay [6] is 31 % of control. Also, the “Inhibitory activity (% of control), Fyn(h)” value in assay [7] was 65 % of control.
For `COc1ccc2cc(-c3n[nH]c4ccc(-c5n[nH]c(CN6CCOCC6)n5)cc34)ccc2c1` [CC001, 3-(6-Methoxynaphthalen-2-yl)-5-(5-Morpholin-4-Ylmethyl-1H-[1,2,4]Triazol-3-yl)-1H-Indazole], in assay [1], the “Inhibitory activity (% of control), Fes(h)” value was 34 % of control. In addition, the “Inhibitory activity (% of control), CDK5/p35(h)” value in assay [2] is recorded as 7 % of control. Besides, the “Inhibitory activity (% of control), CaMKIV(h)” value in assay [3] is 82 % of control. For the same molecule, the “Inhibitory activity (% of control), IGF-1R(h)” value in assay [4] was 92 % of control. Besides, the “Inhibitory activity (% of control), FGFR3(h)” value in assay [5] is given as 33 % of control. For the same molecule, the “Inhibitory activity (% of control), Rsk2(h)” value in assay [6] is 6 % of control. The “Inhibitory activity (% of control), Fyn(h)” value in assay [7] is 14 % of control.
Regarding `CC(C)(C)Cc1nc(-c2ccc3[nH]nc(-c4ccc5cc(OCc6ccccn6)ccc5c4)c3c2)n[nH]1` [CC004, 5-[5-(2,2-Dimethyl-propyl)-1H-[1,2,4]triazol-3-yl]-3-[6-(pyridine-2-ylmethoxy)-naphthalen-2-yl]-1H-indazole], the “Inhibitory activity (% of control), Fes(h)” value in assay [1] is listed as 70 % of control. Further, the “Inhibitory activity (% of control), CDK5/p35(h)” value in assay [2] is given as 10 % of control. In addition, the “Inhibitory activity (% of control), CaMKIV(h)” value in assay [3] is reported as 80 % of control. Further, the “Inhibitory activity (% of control), IGF-1R(h)” value in assay [4] is reported as 96 % of control. Besides, the “Inhibitory activity (% of control), FGFR3(h)” value in assay [5] is given as 77 % of control. For the same molecule, in assay [6], the “Inhibitory activity (% of control), Rsk2(h)” value is recorded as 34 % of control. In assay [7], the “Inhibitory activity (% of control), Fyn(h)” value is recorded as 67 % of control.
Take `O=C(NC1CCCC1)c1cccc(-c2n[nH]c3ccc(-c4nc[nH]n4)cc23)c1` [CC007, 3-(5-(1H-1,2,4-triazol-3-yl)(1H-indazol-3-yl))phenyl-N-cyclopentylcarboxamide, reference compound]: in assay [1], the “Inhibitory activity (% of control), Fes(h)” value was 41 % of control. Moreover, the “Inhibitory activity (% of control), CDK5/p35(h)” value in assay [2] is on record as 50 % of control. The “Inhibitory activity (% of control), CaMKIV(h)” value in assay [3] is given as 86 % of control. In addition, in assay [4], the “Inhibitory activity (% of control), IGF-1R(h)” value is given as 88 % of control. Moreover, the “Inhibitory activity (% of control), FGFR3(h)” value in assay [5] is reported as 54 % of control. Also, the “Inhibitory activity (% of control), Rsk2(h)” value in assay [6] is 45 % of control. For the same molecule, the “Inhibitory activity (% of control), Fyn(h)” value in assay [7] is 66 % of control.

For the origin of these results see patent publication US20050107386A1, “Methods of treating diseases and disorders by targeting multiple kinases” (priority 2003, published 2005).
